Measurements: patent publication US20140274688A1, “MOLECULES HAVING CERTAIN PESTICIDAL UTILITIES, AND INTERMEDIATES, COMPOSITIONS, AND PROCESSES RELATED THERETO” (DOW AGROSCIENCES LLC, priority 2013, published 2014)

Experiments:
[1] = test system: Cabbage Looper (Trichoplusia ni) ("CL"); test: Bioassay on Cabbage Looper (CL), 128-well diet tray assay, percent mortality; format: in vivo; details: for CL rating (percent mortality class): Cabbage Looper, 128-well diet tray assay; for pest or weed control at 50 µg/cm2: Trichoplusia ni, read-out: CL
Procedure, shortened: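 Larvae held in covered diet trays at 25 °C, 14:10 light-dark, for five to seven days. Percent mortality scored per well and averaged over eight wells.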

[2] = test system: Green Peach Aphid ("GPA") (Myzus persicae); test: Bioassay on Green Peach Aphid (GPA), foliar spray on cabbage seedlings, corrected % control; format: in vivo; details: for GPA rating (corrected % control class): foliar spray on cabbage seedlings; for GPA: Table ABC (P), rating of corrected % control
[3] = test system: Yellow Fever Mosquito "YFM" (Aedes aegypti); details: for YFM rating (mortality class): Yellow Fever Mosquito larvae, 96-well plates; for YFM: Table ABC (P), rating of mortality, Yellow Fever Mosquito
[4] = test system: Beet Armyworm (Spodoptera exigua) ("BAW"); test: Bioassay on Beet Armyworm (BAW), 128-well diet tray assay, percent mortality; format: in vivo; details: for BAW rating (percent mortality class): Beet Armyworm, 128-well diet tray assay; for pest or weed control at 50 µg/cm2: Spodoptera exigua, read-out: BAW
Procedure, shortened: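 Larvae in covered diet trays held at 25 °C, 14:10 light-dark, for five to seven days. Percent mortality scored per well and averaged over eight wells per treatment.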

Row | SMILES | CL rating (percent mortality class) [1] | GPA rating (corrected % control class) [2] | YFM rating (mortality class) [3] | BAW rating (percent mortality class) [4] | pest or weed control at 50 µg/cm2 [1] [%] | GPA [2] | YFM [3] | pest or weed control at 50 µg/cm2 [4] [%]
1 | CC(C)c1ccccc1NC(=S)NC(=O)NCCc1ccc(-c2ncn(-c3ccc(OC(F)(F)F)cc3)n2)cc1 [F2, N-[2-isopropylphenyl]-N-[2-(4-{1-[4-(trifluoromethoxy)phenyl]-1H-1,2,4-triazol-3-yl}phenyl)ethyl]dicarbonimidothioic diamide] | A (50-100) | B (More than 0-Less than 80) | A (80-100) | A (50-100) | – | – | – | –
2 | Cc1ccc(C(C)C)c(N2C(=O)CS/C2=N\C(=O)NCCc2ccc(-c3ncn(-c4ccc(OC(F)(F)F)cc4)n3)cc2)c1 [F5, (Z)-1-(3-(2-isopropyl-5-methylphenyl)-4-oxothiazolidin-2-ylidene)-3-(4-(1-(4-(trifluoromethoxy)phenyl)-1H-1,2,4-triazol-3-yl)phenethyl)urea] | A (50-100) | A (80-100) | A (80-100) | A (50-100) | – | – | – | –
3 | COc1ccc(C(C)C)c(N2C(=O)CS/C2=N\C(=O)NCCc2ccc(-c3ncn(-c4ccc(OC(F)(F)F)cc4)n3)cc2)c1 [F6, (Z)-1-(3-(2-isopropyl-5-methoxyphenyl)-4-oxothiazolidin-2-ylidene)-3-(4-(1-(4-(trifluoromethoxy)phenyl)-1H-1,2,4-triazol-3-yl)phenethyl)urea] | A (50-100) | B (More than 0-Less than 80) | A (80-100) | A (50-100) | – | – | – | –
4 | CC(Cc1ccc(-c2ncn(-c3ccc(OC(F)(F)F)cc3)n2)cc1)NC(=O)/N=C1\SCC(=O)N1c1ccccc1C(C)C (stereo not shown) [F7, (Z)-1-(3-(2-isopropylphenyl)-4-oxothiazolidin-2-ylidene)-3-(1-(4-(1-(4-(trifluoromethoxy)phenyl)-1H-1,2,4-triazol-3-yl)phenyl)propan-2-yl)urea] | A (50-100) | B (More than 0-Less than 80) | A (80-100) | A (50-100) | – | – | – | –
5 | Cc1ccc(C(C)C)c(N2C(=O)CS/C2=N\C(=O)NCC(C)c2ccc(-c3ncn(-c4ccc(OC(F)(F)F)cc4)n3)cc2)c1 (stereo not shown) [F10, (Z)-1-(3-(2-isopropyl-5-methylphenyl)-4-oxothiazolidin-2-ylidene)-3-(2-(4-(1-(4-(trifluoromethoxy)phenyl)-1H-1,2,4-triazol-3-yl)phenyl)propyl)urea] | A (50-100) | B (More than 0-Less than 80) | A (80-100) | A (50-100) | – | – | – | –
6 | CC(C)c1cccc(N2C(=O)CS/C2=N\C(=O)NCCc2ccc(-c3ncn(-c4ccc(OC(F)(F)F)cc4)n3)cc2)c1 [P51, (Z)-1-(3-(3-isopropylphenyl)-4-oxothiazolidin-2-ylidene)-3-(4-(1-(4-(trifluoromethoxy)phenyl)-1H-1,2,4-triazol-3-yl)phenethyl)urea] | – | – | – | – | 50 to 100 | B (More than 0-Less than 80) | A (80-100) | 50 to 100
7 | Cc1ccc(N2C(=O)CS/C2=N\C(=O)NCCCCc2ccc(-c3ncn(-c4ccc(OC(F)(F)F)cc4)n3)cc2)c(C(C)C)c1 [P154, (Z)-1-(3-(2-isopropyl-4-methylphenyl)-4-oxothiazolidin-2-ylidene)-3-(4-(4-(1-(4-(trifluoromethoxy)phenyl)-1H-1,2,4-triazol-3-yl)phenyl)butyl)urea] | – | – | – | – | 50 to 100 | – | B (More than 0-Less than 80) | 50 to 100
8 | Cc1ccc(C(C)C)c(N2C(=O)CS/C2=N\C(=O)NCCCCc2ccc(-c3ncn(-c4ccc(C(F)(F)F)cc4)n3)cc2)c1 [P159, (Z)-1-(3-(2-isopropyl-5-methylphenyl)-4-oxothiazolidin-2-ylidene)-3-(4-(4-(1-(4-(trifluoromethyl)phenyl)-1H-1,2,4-triazol-3-yl)phenyl)butyl)urea] | – | – | – | – | 50 to 100 | B (More than 0-Less than 80) | A (80-100) | 50 to 100
9 | Cc1ccc(C(C)C)c(N2C(=O)CS/C2=N\C(=O)NCCC#Cc2ccc(-c3ncn(-c4ccc(OC(F)(F)F)cc4)n3)cc2)c1 [P160, (Z)-1-(3-(2-isopropyl-5-methylphenyl)-4-oxothiazolidin-2-ylidene)-3-(4-(4-(1-(4-(trifluoromethoxy)phenyl)-1H-1,2,4-triazol-3-yl)phenyl)but-3-yn-1-yl)urea] | – | – | – | – | 50 to 100 | – | B (More than 0-Less than 80) | 50 to 100
10 | CC(C)c1ccccc1N1C(=O)CS/C1=N\C(=O)NCC(C)c1ccc(-c2ncn(-c3ccc(OC(F)(F)F)cc3)n2)cc1 (stereo not shown) [P205, (Z)-1-(3-(2-isopropylphenyl)-4-oxothiazolidin-2-ylidene)-3-(2-(4-(1-(4-(trifluoromethoxy)phenyl)-1H-1,2,4-triazol-3-yl)phenyl)propyl)urea] | – | – | – | – | 50 to 100 | – | A (80-100) | 50 to 100
11 | COc1ccc(C(C)C)c(N2C(=O)CS/C2=N\C(=O)NCC(C)c2ccc(-c3ncn(-c4ccc(OC(F)(F)F)cc4)n3)cc2)c1 (stereo not shown) [P679, (Z)-1-(3-(2-isopropyl-5-methoxyphenyl)-4-oxothiazolidin-2-ylidene)-3-(2-(4-(1-(4-(trifluoromethoxy)phenyl)-1H-1,2,4-triazol-3-yl)phenyl)propyl)urea] | – | – | – | – | 50 to 100 | – | A (80-100) | 50 to 100
